Test results taken from ChEMBL document CHEMBL5252675, “Discovery of new 5-substituted-indole-2-carboxamides as dual epidermal growth factor receptor (EGFR)/cyclin dependent kinase-2 (CDK2) inhibitors with potent antiproliferative action” (RSC Med Chem, 2023).

Key:
[1] = tested on: A549; assay: Antiproliferative activity against human A549 cells by MTT assay; assay type: functional, cell-based
[2] = tested on: MCF-10A; assay: Cytotoxicity against human MCF-10A cells assessed as reduction in cell viability at 50 uM incubated for 4 days by MTT assay; assay type: toxicity, cell-based; settings: 96 h, time 4 day
[3] = tested on: HT-29; assay: Antiproliferative activity against human HT-29 cells by MTT assay; assay type: functional, cell-based
[4] = tested on: PANC-1; assay: Antiproliferative activity against human PANC-1 cells by MTT assay; assay type: functional, cell-based
[5] = tested on: MCF7; assay: Antiproliferative activity against human MCF7 cells by MTT assay; assay type: functional, cell-based
[6] = target: Cyclin-dependent kinase 2 (Homo sapiens, UniProt P24941)
Description: Inhibition of CDK2 (unknown origin)

[7] = target: Epidermal growth factor receptor (Homo sapiens, UniProt P00533); assay: Inhibition of EGFR (unknown origin)
Sequence of Epidermal growth factor receptor (P00533 whole entry): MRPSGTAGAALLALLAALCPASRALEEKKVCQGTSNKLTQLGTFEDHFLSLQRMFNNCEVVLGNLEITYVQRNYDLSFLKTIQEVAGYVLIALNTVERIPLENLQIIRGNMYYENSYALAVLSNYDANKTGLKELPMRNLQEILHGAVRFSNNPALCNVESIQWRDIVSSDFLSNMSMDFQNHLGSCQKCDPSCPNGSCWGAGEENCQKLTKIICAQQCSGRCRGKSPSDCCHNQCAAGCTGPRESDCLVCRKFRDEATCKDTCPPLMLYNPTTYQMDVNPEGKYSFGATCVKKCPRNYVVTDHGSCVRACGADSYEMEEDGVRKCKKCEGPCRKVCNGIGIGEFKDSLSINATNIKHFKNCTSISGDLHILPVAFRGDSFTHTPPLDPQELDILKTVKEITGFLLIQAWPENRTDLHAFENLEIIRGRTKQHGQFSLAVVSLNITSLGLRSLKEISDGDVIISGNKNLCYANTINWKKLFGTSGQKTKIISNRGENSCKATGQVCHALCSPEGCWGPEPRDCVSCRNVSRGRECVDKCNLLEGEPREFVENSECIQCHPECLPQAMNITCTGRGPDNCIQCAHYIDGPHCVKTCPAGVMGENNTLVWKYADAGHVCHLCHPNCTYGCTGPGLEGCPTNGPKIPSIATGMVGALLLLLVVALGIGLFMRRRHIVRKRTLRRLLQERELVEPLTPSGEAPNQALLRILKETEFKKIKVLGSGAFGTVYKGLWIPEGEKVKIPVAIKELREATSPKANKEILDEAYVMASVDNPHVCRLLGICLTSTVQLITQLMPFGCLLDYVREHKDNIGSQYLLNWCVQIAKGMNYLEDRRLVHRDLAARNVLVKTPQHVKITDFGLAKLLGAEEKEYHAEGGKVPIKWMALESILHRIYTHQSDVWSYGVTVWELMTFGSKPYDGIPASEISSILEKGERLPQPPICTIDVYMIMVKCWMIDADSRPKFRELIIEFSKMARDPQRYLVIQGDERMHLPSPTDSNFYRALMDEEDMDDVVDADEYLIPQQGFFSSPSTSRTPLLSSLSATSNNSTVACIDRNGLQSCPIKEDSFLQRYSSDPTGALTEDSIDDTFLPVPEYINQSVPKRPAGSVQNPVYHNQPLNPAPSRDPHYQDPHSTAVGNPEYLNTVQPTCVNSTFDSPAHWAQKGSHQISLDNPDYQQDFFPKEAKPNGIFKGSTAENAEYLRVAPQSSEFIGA

SMILES	IC50 [1]	Activity [2]	IC50 [3]	IC50 [4]	IC50 [5]	IC50 [6]	IC50 [7]
CCc1c(C(=O)NCCc2ccc(N3CCCC3C)cc2)[nH]c2ccc(Br)cc12 (stereo not given)	172 nM	86%	197 nM	190 nM	185 nM	–	–
CCc1c(C(=O)NCCc2ccc(N(C)C)cc2)[nH]c2ccc(Br)cc12	108 nM	91%	120 nM	115 nM	112 nM	–	–
CCc1c(C(=O)NCCc2ccccc2)[nH]c2ccc(C)cc12	64 nM	87%	75 nM	72 nM	69 nM	46 nM	134 nM
CCc1c(C(=O)N2CCN(c3ccccc3)CC2)[nH]c2ccc(C)cc12	125 nM	90%	140 nM	137 nM	132 nM	–	–
CCc1c(C(=O)NCCc2ccc(N3CCOCC3)cc2)[nH]c2ccc(C(F)(F)F)cc12	43 nM	87%	55 nM	52 nM	45 nM	24 nM	94 nM
CCc1c(C(=O)NCCc2ccc(N3CCOCC3)cc2)[nH]c2ccc(C)cc12	34 nM	89%	37 nM	35 nM	42 nM	16 nM	85 nM
CCc1c(C(=O)NCCc2ccc(N3CCOCC3)cc2)[nH]c2ccc(Br)cc12	67 nM	91%	79 nM	75 nM	74 nM	–	–
CCc1c(C(=O)N2CCN(c3ccccc3)CC2)[nH]c2ccc(Br)cc12	185 nM	85%	202 nM	195 nM	190 nM	–	–
CCc1c(C(=O)NCCc2ccc(N3CCCCC3)cc2)[nH]c2ccc(C(F)(F)F)cc12	77 nM	85%	87 nM	85 nM	82 nM	–	–
CCc1c(C(=O)NCCc2ccc(N3CCCCC3)cc2)[nH]c2ccc(Br)cc12	89 nM	90%	97 nM	97 nM	93 nM	–	–
CCc1c(C(=O)NCCc2ccccc2)[nH]c2ccc(C(F)(F)F)cc12	157 nM	88%	170 nM	165 nM	162 nM	–	–
CCc1c(C(=O)NCCc2ccc(N3CCCCC3)cc2)[nH]c2ccc(C)cc12	51 nM	89%	57 nM	59 nM	54 nM	33 nM	117 nM
CCc1c(C(=O)N2CCN(c3ccccc3)CC2)[nH]c2ccc(C(F)(F)F)cc12	117 nM	91%	130 nM	130 nM	123 nM	–	–
Cc1c(C(=O)NCCc2ccc(F)cc2)[nH]c2cc(F)ccc12	–	–	–	–	–	34 nM	98 nM
CCc1c(C(=O)NCCc2ccccc2)[nH]c2ccc(Br)cc12	138 nM	89%	148 nM	145 nM	142 nM	–	–
